{
  "source": "patent US20250282819A1",
  "about": "“MITOCHONDRIA-[…] PEPTIDE THAT CAN BE […] DELIVERED AT NANOMOLAR CONCENTRATION, AND USE THEREOF” (CAMP THERAPEUTICS INC., priority 2021, published 2025)",
  "key": {"[1]": {"experiment": "Oligomerization tendency by HPLC retention time at 40 and 5° C.", "type": "physicochemical", "details": "10 μl of 0.2 mM peptide", "protocol": "Specifically, 10 μl of each peptide solution at 0.2 mM was injected into HPLC, and the time at which the peptide was detected (RT) was measured at 40° C. and 5° C., respectively. Here, the stationary phase and mobile phase conditions of the HPLC were set using well-known methods. In general, the better the oligomer is formed, the detection time becomes longer at 40° C., which is a relatively higher temperature, thereby resulting in larger ΔΔRT that is a difference from the value measured at 5° C."}, "[2]": {"experiment": "Cytotoxicity by WST-1 assay", "type": "cell-based", "details": "human, HeLa cells, one day, read-out: concentration at which 50% of the cultured cells were killed", "protocol": "The cytotoxicity was measured by WST-1 assay. Specifically, 1×10^4 HeLa cells were seeded into 96-well plates. After 24 hours, the cells were treated with different concentrations of CMP3013 peptide indicated in FIG. 12 and incubated for one day. At the end of the incubation, the culture medium was replaced with new culture medium, treatment with EZ-Cytox (DoGEN, South Korea) at 10 μL was performed per well, and incubation was performed for 30 minutes. Then, the absorbance was measured at 450 nm. As a result, it was identified that the cytotoxicity of CMP3013 was only observed at micromolar or higher levels, and the concentration, at which 50% of the cultured cells were killed, reached 10 micromolar (FIG. 12)."}, "[3]": {"test_system": "HeLa cells", "experiment": "Mitochondria-targeting ability by mitochondrial fractionation", "type": "cell-based", "details": "EC50 concentration", "protocol": "To determine at what rate the dimeric bundle peptides according to the present disclosure target mitochondria, mitochondrial fractionation was performed according to the method described in Experimental Example 4. […] Then, the cells were harvested and fractionation was performed.\nCell-penetrating ability was performed according to the method described in Experimental Example 3, and mitochondria-targeting ability was assessed by mitochondrial fractionation according to the method described in Experimental Example 4. In addition to SS-31 as a conventional peptide, a mitochondrial-penetrating peptide of Kelly's group (MPP1a; see Horton, Kristin L et al. “Mitochondria-penetrating peptides.” Chemistry & biology vol. 15, 4 (2008): 375-82) was used as an additional comparison group. The amino acid sequence of MPP1a is as follows: X(dR)XKX(dR)XK (where X is cyclohexylalanine, dR is D-arginine, and K is lysine).\nIntracellular distribution of peptides was detected using the mitochondria isolation method. […] The cells were harvested, washed with cold PBS, and suspended in cold IB (30 mM Tris-HCl, pH 7.4; 225 mM mannitol; 75 mM sucrose; and 0.1 mM EGTA). […] Lysed cells were monitored under a light microscope. […] The fluorescence intensity of each fraction was measured by using a microplate reader [TECAN, Switzerland; excitation (Ex)/emission (Em)=510/570 nm]."}, "[4]": {"test_system": "HeLa cells", "experiment": "ATP levels in damaged cells pretreated with peptide", "type": "cell-based", "details": "HeLa cells, 10 or 30 nM; 1 μM antimycin A or 1 mM H2O2", "protocol": "The relative ATP levels of cells were compared by fluorescence intensity according to the method described in Experimental Example 8, and mitochondrial damage was induced by treatment with two different mitochondrial damaging agents (1 μM of antimycin A or 1 mM of H2O2).\nCellular ATP levels were assessed using an ATP detection kit (Abcam, ab113849, USA) according to the manufacturer's instructions. Fluorescence luminescence was measured with a microplate reader (Promega, Glomax 96 microplate luminometer, USA)."}, "[5]": {"test_system": "SH-SY5Y cells", "experiment": "ROS production inhibiting ability, comparison of SS-31 and CMP3013", "type": "cell-based", "details": "CCCP, rotenone, antimycin A or H2O2, SS-31 100 nM or 1 μM, CMP3013 10 nM or 100 nM", "protocol": "To compare effects of the two peptides on restoration of mitochondrial function, SS-31 and CMP3013 were tested for their ROS production inhibiting ability. The relative ROS levels in cells were compared by fluorescence intensity according to the method described in Experimental Example 6. SH-SY5Y cells were treated with four different mitochondrial damaging agents (200 μM CCCP, 50 μM rotenone, 10 μM antimycin A, or 50 μM H2O2) to induce production of ROS by mitochondrial damage.\nThe second method was performed as follows. First, 2×10^4 HeLa cells were seeded into a 96-well plate. After 24 hours, the cells were incubated with each peptide for 3 hours, and then staining with H2DCFDA (25 μM, 30 min) was performed. After performing washing twice with PBS, the cells in HBSS were used for analysis of ROS levels. The DCF signal of each well was obtained using a microplate reader (TECAN) at 37° C. (Ex/Em=485/535 nm)."}},
  "note": "Where a SMILES comes first, the peptide text is derived from it.",
  "data": [
    {"smiles": "CC(=O)N[C@@H](CC1CCCCC1)C(=O)N[C@H]1CSSC[C@@H](C(=O)N[C@@H](CCCNC(=N)N)C(N)=O)NC(=O)[C@H](CC2CCCCC2)NC(=O)[C@H](CCCNC(=N)N)NC(=O)[C@H](CCCNC(=N)N)NC(=O)[C@H](CC2CCCCC2)NC(=O)[C@H](CC(C)C)NC(=O)[C@H](CCCNC(=N)N)NC(=O)[C@@H](NC(=O)[C@H](CC2CCCCC2)NC(C)=O)CSSC[C@@H](C(=O)N[C@@H](CCCNC(=N)N)C(N)=O)NC(=O)[C@H](CC2CCCCC2)NC(=O)[C@H](CCCNC(=N)N)NC(=O)[C@H](CCCNC(=N)N)NC(=O)[C@H](CC2CCCCC2)NC(=O)[C@H](CC(C)C)NC(=O)[C@H](CCCNC(=N)N)NC1=O", "note": "[CMP3013] (HELM PEPTIDE1{[ac].[Cha].C.R.L.[Cha].R.R.[Cha].C.R.[am]}|PEPTIDE2{[ac].[Cha].C.R.L.[Cha].R.R.[Cha].C.R.[am]}$PEPTIDE1,PEPTIDE2,3:R3-10:R3|PEPTIDE1,PEPTIDE2,10:R3-3:R3$$$V2.0)", "values": [
      {"measurement": "Oligomerization tendency (RT at 40-5° C.) ΔΔRT", "setting": "[1]", "value": 2.683, "unit": "min"},
      {"measurement": "CC50 at 24 h", "setting": "[2]", "value": 10, "unit": "µM"},
      {"measurement": "mitochondrial/cytoplasmic abundance ratio (M/C ratio)", "setting": "[3]", "value": 4.1},
      {"measurement": "rank of percentage in the mitochondrial fraction", "setting": "[3]; 3 hours", "value": "highest percentage in the mitochondrial fraction"},
      {"measurement": "ATP production promoting ability", "setting": "[4]", "value": "promoting resumption of ATP production"},
      {"measurement": "ROS production inhibiting ability", "setting": "[5]", "value": "equivalent or better ROS production inhibiting ability than SS-31"}
    ]}
  ]
}
